From US12138322B2, “Method of preventing the development of melanoma” (Vector Vitale IP LLC, priority 2019, dated 2024)
Marks after values point to notes of the source that are not given here.

Columns and labels:
melanoma = assay: Simultaneous intratumoral and intravenous administration (data not shown); type: in vivo
Description: A possibility of simultaneous intratumoral and intravenous administration of the composition comprising 64Zne(Asp)2 was assessed in additional experiments (data not shown).

B16 melanoma cells = assay: Experimental model of hematogenous B16 melanoma metastasis (lungs), intravenous administration; type: in vivo, C57Bl mice; conditions: IV 60 μg/mouse; for Number of animals in the group with metastases / Number of metastases/mouse (M ± m) / Volume of metastases/mouse (M ± m): lungs at day 26
Description: An experimental model of hematogenous metastasis was used in the experiment which allowed for the inoculation of B16 melanoma cells. The characteristic of these cells is given in Example 1. The cells were cultured in vitro under standard conditions. For transplantation, tumor cells were removed from the substrate with 0.02% Versene solution and the suspension cellularity and viability were evaluated in the presence of trypan blue in a hemocytometer and the suspension was adjusted to a concentration of […]. Melanoma cells were injected intracutaneously (IC) in 0.05 ml of suspension (0.5×10^6 cells/mouse) into the back area of the animal. Part of the coat on the back of mice was removed with a depilatory cream at 24 hours before tumor cell inoculation. Cells isolated from B16 mouse melanoma were used in the experiment. Cells were cultured in vitro under standard conditions. For inoculation, tumor cells were removed from the substrate with 0.02% Versene solution. The cellularity and viability of the obtained cell suspension were evaluated with a hemocytometer in presence of a trypan blue. Cell concentration was adjusted with saline to 1×10^6 cells/ml. Melanoma cells were injected IV in 0.2 ml of suspension (0.2×10^6 cells/mouse) into the lateral tail vein.
^64Zne(Asp)2 was dissolved in deuterium-depleted water. The composition was injected intravenously using a microinjection syringe at a dose of 60 μg of ^64Zne/mouse: two injections at a dose of 30 μg/mouse, each in a volume of 0.3 ml (0.6 ml in total), for 4 hours. The injections were given every other day for 10 days (5 injections in total). The first injection of the inventive composition was given 45 minutes or 24 hours after inoculation of tumor cells. At day 26 after IV injection of tumor cells the lungs were excised from all animals in each group and the number and volume of metastases were then determined. C57Bl mice (8 mice per group) at the age of 12-14 weeks, weighing 25-27 g were used in the experiment. The conditions in which animals were maintained are described in Example 1 above.
The ^64Zne(Asp)2 composition was injected intravenously into the animal's lateral tail vein using a Micro-Fine Plus microinjection syringe (Becton Dickinson). The injection site was cleaned with 96% ethanol.
The animals were divided into experimental groups as follows: • Group No. 1: control group, mice injected IV with B16 melanoma cells+IV injection of the solvent (deuterium-depleted water); • Group No. 2: mice injected IV with B16 melanoma cells+IV injection of ^64Zne(Asp)2 24 hours after the tumor cells were inoculated; • Group No. 3: mice injected IV with B16 melanoma cells+IV injection of ^64Zne(Asp)2 45 minutes after the tumor cells were inoculated
On day 26 after IV injection of tumor cells the lungs were excised from all animals in each group and the number and volume of metastases were then determined.
The volume of metastases was calculated using the following formula for the volume of a sphere:
V= 4/3×πr^3, where V is the metastasis volume (mm^3); r is the metastasis radius (mm).

[1] = first injection 45 min after tumor cells were inoculated
[2] = first injection 24 hours after tumor cells were inoculated

In the case of `N[C@@H](CC(=O)[O-])C(=O)[O-].[Zn+2]` [^64Zne(Asp)2, Zinc L-aspartate], the “suppression of the metastatic process (tumor size, surviving animals, number of metastases), words” value (melanoma) is reported as “confirmed the efficacy”, the “number and volume of metastases vs. control” value (B16 melanoma cells; 45 min or 24 hours after inoculation) is reported as “statistically significant decrease” and the “Number of animals in the group with metastases” value (B16 melanoma cells; [1]) is reported as 75%. The “Number of metastases/mouse (M ± m)” value (B16 melanoma cells; [1]) was 4 ± 2, the “Volume of metastases/mouse (M ± m)” value (B16 melanoma cells; [1]) was 2.5 ± 1.7* mm^3 and the “Number of animals in the group with metastases” value (B16 melanoma cells; [2]) was 75%. The “Number of metastases/mouse (M ± m)” value (B16 melanoma cells; [2]) was 6.4 ± 2.5 and the “Volume of metastases/mouse (M ± m)” value (B16 melanoma cells; [2]) was 3.3 ± 2* mm^3.
